Laboratory results taken from US9956220B2, “Imidazo-pyridazine derivatives as casein kinase 1 δ/ϵ inhibitors” (Bristol-Myers Squibb Company, priority 2014, dated 2018).

Legend:
CK1ϵ = CK1ϵ (Homo sapiens, UniProt P49674); assay: CK1ϵ kinase assay (Caliper LABCHIP electrophoretic separation of fluoresceinated peptide substrate and product); format: biochemical; settings: 200 pM CK1ϵ, 50 μM ATP, 1.5 μM peptide substrate, 22 hours at room temperature; read-out: CK1ε (IC50)
Protocol: (§1) CK1ϵ and CK1δ Kinase Assays
(§2) The kinase assay was performed in V-bottom 384-well plates.
(§3) The reaction was incubated at room temperature for 22 hours and terminated by adding 45 μl of 35 mM EDTA to each sample. The reaction mixture was analyzed on the Caliper LABCHIP®3000 (Caliper, Hopkinton, Mass.) by electrophoretic separation of the unphosphorylated substrate and phosphorylated product. […] Compounds were dissolved at 10 mM in dimethylsulfoxide (DMSO) and evaluated at eleven concentrations. IC50 values were derived by non-linear regression analysis.

CK1δ = CK1δ (Homo sapiens, UniProt P48730); assay: CK1δ kinase assay (Caliper LABCHIP electrophoretic separation of fluoresceinated peptide substrate and product); format: biochemical; settings: 200 pM CK1δ, 50 μM ATP, 1.5 μM peptide substrate, 22 hours at room temperature
Chain of CK1δ (P48730 whole entry): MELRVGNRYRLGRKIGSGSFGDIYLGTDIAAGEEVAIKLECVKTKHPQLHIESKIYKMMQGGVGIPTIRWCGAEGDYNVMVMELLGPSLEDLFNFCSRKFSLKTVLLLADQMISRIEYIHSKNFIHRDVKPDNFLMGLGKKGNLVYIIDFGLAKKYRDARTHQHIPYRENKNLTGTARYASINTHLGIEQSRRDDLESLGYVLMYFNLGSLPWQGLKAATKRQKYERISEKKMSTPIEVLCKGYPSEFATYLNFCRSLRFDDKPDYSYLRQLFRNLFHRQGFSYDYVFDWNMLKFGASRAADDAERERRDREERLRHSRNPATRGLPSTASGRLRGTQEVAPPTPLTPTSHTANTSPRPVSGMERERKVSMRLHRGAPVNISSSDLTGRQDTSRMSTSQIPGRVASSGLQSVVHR
Protocol: as §1, §2, §3

Chain of CK1ϵ (P49674 whole entry): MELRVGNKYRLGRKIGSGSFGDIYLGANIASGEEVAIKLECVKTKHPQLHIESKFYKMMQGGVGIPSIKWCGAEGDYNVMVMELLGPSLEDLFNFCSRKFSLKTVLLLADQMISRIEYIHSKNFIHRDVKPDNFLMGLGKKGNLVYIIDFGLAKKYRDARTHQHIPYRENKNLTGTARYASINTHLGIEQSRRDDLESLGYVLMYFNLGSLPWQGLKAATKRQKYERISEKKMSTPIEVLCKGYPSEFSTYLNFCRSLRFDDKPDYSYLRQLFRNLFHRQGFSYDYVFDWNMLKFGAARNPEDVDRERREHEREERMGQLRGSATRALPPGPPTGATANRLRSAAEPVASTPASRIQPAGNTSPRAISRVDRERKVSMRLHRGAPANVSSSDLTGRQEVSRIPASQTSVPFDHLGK

O=C(Nc1cn2nc(-c3c(-c4ccc(F)cc4)nn4c3CN(CCC(F)(F)F)CC4)ccc2n1)c1ccnc(F)c1 [Example 27, 2-Fluoro-N-(6-(2-(4-fluorophenyl)-5-(3,3,3-trifluoropropyl)-4,5,6,7-tetrahydropyrazolo[1,5-a]pyrazin-3-yl)imidazo[1,2-b]pyridazin-2-yl)isonicotinamide]
IC50 (CK1ϵ): 3.6 nM | IC50 (CK1δ): 0.5 nM

O=C(Nc1cn2nc(-c3c(-c4ccc(F)cc4)nn4c3COCC4)ccc2n1)c1ccnc(F)c1 [Example 53, 2-Fluoro-N-(6-(2-(4-fluorophenyl)-6,7-dihydro-4H-pyrazolo[5,1-c][1,4]oxazin-3-yl)imidazo[1,2-b]pyridazin-2-yl)isonicotinamide]
IC50 (CK1ϵ): 4.1 nM | IC50 (CK1δ): 0.4 nM

O=C(Nc1cn2nc(-c3c(-c4ccc(F)cc4)nn4c3CN(C3COC3)CC4)ccc2n1)c1ccnc(F)c1 [Example 30, 2-Fluoro-N-(6-(2-(4-fluorophenyl)-5-(oxetan-3-yl)-4,5,6,7-tetrahydropyrazolo[1,5-a]pyrazin-3-yl)imidazo[1,2-b]pyridazin-2-yl)isonicotinamide]
IC50 (CK1ϵ): 6.5 nM | IC50 (CK1δ): 0.5 nM

O=C(Nc1cn2nc(-c3c(-c4ccc(F)cc4)nn4c3CN(C(=O)CC(F)(F)F)CC4)ccc2n1)c1ccnc(F)c1 [Example 15, 2-Fluoro-N-(6-(2-(4-fluorophenyl)-5-(3,3,3-trifluoropropanoyl)-4,5,6,7-tetrahydropyrazolo [1,5-a]pyrazin-3-yl)imidazo[1,2-b]pyridazin-2-yl)isonicotinamide]
IC50 (CK1ϵ): 0.7 nM | IC50 (CK1δ): 0.2 nM

O=C(Nc1cn2nc(-c3c(-c4ccc(F)cc4)nn4c3CN(CC(F)F)CC4)ccc2n1)c1ccnc(F)c1 [Example 32, N-(6-(5-(2,2-Difluoroethyl)-2-(4-fluorophenyl)-4,5,6,7-tetrahydropyrazolo[1,5-a]pyrazin-3-yl)imidazo[1,2-b]pyridazin-2-yl)-2-fluoroisonicotinamide]
IC50 (CK1ϵ): 1.5 nM | IC50 (CK1δ): 0.3 nM

O=C(Nc1cn2nc(-c3c(-c4ccc(F)cc4)nn4c3CN(C(=O)NCCC(F)(F)F)CC4)ccc2n1)c1ccnc(F)c1 [Example 50, 3-(2-(2-Fluoroisonicotinamido)imidazo[1,2-b]pyridazin-6-yl)-2-(4-fluorophenyl)-N-(3,3,3-trifluoropropyl)-6,7-dihydropyrazolo[1,5-a] pyrazine-5(4H)-carboxamide]
IC50 (CK1ϵ): 9.3 nM | IC50 (CK1δ): 0.7 nM

O=C(Nc1cn2nc(-c3c(-c4ccc(F)cc4)nn4c3CN(S(=O)(=O)Cc3ccccc3)CC4)ccc2n1)c1ccnc(F)c1 [Example 40, N-(6-(5-(Benzylsulfonyl)-2-(4-fluorophenyl)-4,5,6,7-tetrahydropyrazolo[1,5-a]pyrazin-3-yl)imidazo[1,2-b]pyridazin-2-yl)-2-fluoroisonicotinamide]
IC50 (CK1ϵ): 10.3 nM | IC50 (CK1δ): 2.8 nM

O=C(Nc1cn2nc(-c3c(-c4ccc(F)cc4)nn4c3CCC4)ccc2n1)c1ccncc1 [Example 67, N-(6-(2-(4-Fluorophenyl)-5,6-dihydro-4H-pyrrolo[1,2-b]pyrazol-3-yl)imidazo[1,2-b]pyridazin-2-yl) isonicotinamide]
IC50 (CK1ϵ): 3.6 nM | IC50 (CK1δ): 0.4 nM

O=C(Nc1cn2nc(-c3c(-c4ccc(F)cc4)nn4c3CNCC4)ccc2n1)c1ccnc(N2CCOCC2)c1 [Example 4, N-(6-(2-(4-Fluorophenyl)-4,5,6,7-tetrahydropyrazolo[1,5-a]pyrazin-3-yl)imidazo[1,2-b]pyridazin-2-yl)-2-morpholinoisonicotinamide]
IC50 (CK1ϵ): 1.3 nM | IC50 (CK1δ): 0.3 nM

CN1CCn2nc(-c3ccc(F)cc3)c(-c3ccc4nc(NC(=O)c5ccnc(F)c5)cn4n3)c2C1 [Example 26, 2-Fluoro-N-(6-(2-(4-fluorophenyl)-5-methyl-4,5,6,7-tetrahydropyrazolo [1,5-a]pyrazin-3-yl)imidazo[1,2-b]pyridazin-2-yl)isonicotinamide]
IC50 (CK1ϵ): 7.3 nM | IC50 (CK1δ): 0.4 nM

CC(=O)N1CCn2nc(-c3ccc(F)cc3)c(-c3ccc4nc(NC(=O)c5ccnc(F)c5)cn4n3)c2C1 [Example 12, N-(6-(5-Acetyl-2-(4-fluorophenyl)-4,5,6,7-tetrahydropyrazolo[1,5-a]pyrazin-3-yl)imidazo[1,2-b]pyridazin-2-yl)-2-fluoroisonicotinamide]
IC50 (CK1ϵ): 2 nM | IC50 (CK1δ): 0.3 nM

CC1(NC(=O)N2CCn3nc(-c4ccc(F)cc4)c(-c4ccc5nc(NC(=O)c6ccnc(F)c6)cn5n4)c3C2)CC1 [Example 52, 3-(2-(2-Fluoroisonicotinamido)imidazo[1,2-b]pyridazin-6-yl)-2-(4-fluorophenyl)-N-(1-methylcyclopropyl)-6,7-dihydropyrazolo[1,5-a] pyrazine-5(4H)-carboxamide]
IC50 (CK1ϵ): 7.7 nM | IC50 (CK1δ): 0.9 nM

O=C(Nc1cn2nc(-c3c(-c4ccc(F)cc4)nn4c3CN(S(=O)(=O)C3CC3)CC4)ccc2n1)c1ccnc(F)c1 [Example 36, N-(6-(5-(Cyclopropylsulfonyl)-2-(4-fluorophenyl)-4,5,6,7-tetrahydropyrazolo[1,5-a]pyrazin-3-yl)imidazo[1,2-b]pyridazin-2-yl)-2-fluoroisonicotinamide]
IC50 (CK1ϵ): 1.2 nM | IC50 (CK1δ): 0.1 nM

Cn1cnc(S(=O)(=O)N2CCn3nc(-c4ccc(F)cc4)c(-c4ccc5nc(NC(=O)c6ccnc(F)c6)cn5n4)c3C2)c1 [Example 39, 2-Fluoro-N-(6-(2-(4-fluorophenyl)-5-((1-methyl-1H-imidazol-4-yl)sulfonyl)-4,5,6,7-tetrahydropyrazolo [1,5-a]pyrazin-3-yl)imidazo [1,2-b]pyridazin-2-yl) isonicotinamide]
IC50 (CK1ϵ): 4.6 nM | IC50 (CK1δ): 0.4 nM

O=C(Nc1cn2nc(-c3c(-c4ccc(F)cc4)nn4c3CN(CCCF)CC4)ccc2n1)c1ccnc(F)c1 [Example 28, 2-Fluoro-N-(6-(2-(4-fluorophenyl)-5-(3-fluoropropyl)-4,5,6,7-tetrahydropyrazolo[1,5-a]pyrazin-3-yl)imidazo[1,2-b]pyridazin-2-yl)isonicotinamide]
IC50 (CK1ϵ): 2.5 nM | IC50 (CK1δ): 0.2 nM

CS(=O)(=O)N1CCn2nc(-c3ccc(F)cc3)c(-c3ccc4nc(NC(=O)c5ccnc(F)c5)cn4n3)c2C1 [Example 35, 2-Fluoro-N-(6-(2-(4-fluorophenyl)-5-(methylsulfonyl)-4,5,6,7-tetrahydropyrazolo[1,5-a]pyrazin-3-yl)imidazo[1,2-b]pyridazin-2-yl)isonicotinamide]
IC50 (CK1ϵ): 0.8 nM | IC50 (CK1δ): 0.2 nM

O=C(Nc1cn2nc(-c3c(-c4ccc(F)cc4)nn4ccccc34)ccc2n1)c1cc(F)nc(F)c1 [Example 61, 2,6-Difluoro-N-(6-(2-(4-fluorophenyl)pyrazolo[1,5-a]pyridin-3-yl)imidazo[1,2-b]pyridazin-2-yl)isonicotinamide]
IC50 (CK1ϵ): 137 nM | IC50 (CK1δ): 19.5 nM

N#CCC(=O)N1CCn2nc(-c3ccc(F)cc3)c(-c3ccc4nc(NC(=O)c5ccnc(F)c5)cn4n3)c2C1 [Example 24, N-(6-(5-(2-Cyanoacetyl)-2-(4-fluorophenyl)-4,5,6,7-tetrahydropyrazolo[1,5-a]pyrazin-3-yl)imidazo[1,2-b]pyridazin-2-yl)-2-fluoroisonicotinamide]
IC50 (CK1ϵ): 2.9 nM | IC50 (CK1δ): 0.4 nM

O=C(Nc1cn2nc(-c3c(-c4ccc(F)cc4)nn4c3CCC4)ccc2n1)c1cc(F)nc(F)c1 [Example 66, 2,6-Difluoro-N-(6-(2-(4-fluorophenyl)-5,6-dihydro-4H-pyrrolo[1,2-b]pyrazol-3-yl)imidazo[1,2-b]pyridazin-2-yl)isonicotinamide]
IC50 (CK1ϵ): 5.3 nM | IC50 (CK1δ): 0.7 nM

O=C(Nc1cn2nc(-c3c(-c4ccc(F)cc4)nn4c3CN(C(=O)c3cccc(F)c3)CC4)ccc2n1)c1ccnc(F)c1 [Example 19, 2-Fluoro-N-(6-(5-(3-fluorobenzoyl)-2-(4-fluorophenyl)-4,5,6,7-tetrahydropyrazolo[1,5-a]pyrazin-3-yl)imidazo[1,2-b]pyridazin-2-yl) isonicotinamide]
IC50 (CK1ϵ): 2.7 nM | IC50 (CK1δ): 0.2 nM

O=C(Nc1cn2nc(-c3c(-c4ccc(F)cc4)nn4c3CCCC4)ccc2n1)c1cc(F)nc(F)c1 [Example 64, 2,6-Difluoro-N-(6-(2-(4-fluorophenyl)-4,5,6,7-tetrahydropyrazolo[1,5-a]pyridin-3-yl)imidazo[1,2-b]pyridazin-2-yl) isonicotinamide]
IC50 (CK1ϵ): 3.9 nM | IC50 (CK1δ): 0.5 nM

O=C(Nc1cn2nc(-c3c(-c4ccc(F)cc4)nn4c3CNCC4)ccc2n1)c1ccnc(F)c1 [Example 1, 2-Fluoro-N-(6-(2-(4-fluorophenyl)-4,5,6,7-tetrahydropyrazolo[1,5-a]pyrazin-3-yl)imidazo[1,2-b]pyridazin-2-yl)isonicotinamide]
IC50 (CK1ϵ): 3.7 nM | IC50 (CK1δ): 0.5 nM

O=C(Nc1cn2nc(-c3c(-c4ccc(F)cc4)noc3C3CCOCC3)ccc2n1)c1ccnc(F)c1 [Example 69, 2-Fluoro-N-(6-(3-(4-fluorophenyl)-5-(tetrahydro-2H-pyran-4-yl)isoxazol-4-yl)imidazo[1,2-b]pyridazin-2-yl)isonicotinamide]
IC50 (CK1ϵ): 27.9 nM | IC50 (CK1δ): 1.4 nM

O=C(Nc1cn2nc(-c3c(-c4ccc(F)cc4)nn4c3CN(C(=O)NC3CCCCC3)CC4)ccc2n1)c1ccnc(F)c1 [Example 43, N-Cyclohexyl-3-(2-(2-fluoroisonicotinamido)imidazo [1,2-b]pyridazin-6-yl)-2-(4-fluorophenyl)-6,7-dihydropyrazolo[1,5-a]pyrazine-5(4H)-carboxamide]
IC50 (CK1ϵ): 24 nM | IC50 (CK1δ): 1.6 nM

O=C(Nc1cn2nc(-c3c(-c4ccc(F)cc4)nn4c3CCCC4)ccc2n1)c1ccncc1 [Example 63, N-(6-(2-(4-Fluorophenyl)-4,5,6,7-tetrahydropyrazolo[1,5-a]pyridin-3-yl)imidazo[1,2-b]pyridazin-2-yl) isonicotinamide]
IC50 (CK1ϵ): 1.2 nM | IC50 (CK1δ): 0.3 nM
